Measurements from US7566712B2, “Biaryl piperazinyl-pyridine analogues” (Neurogen Corporation, priority 2003, dated 2009).

Molecular target: T1, human capsaicin receptor (Homo sapiens, UniProt Q8NER1)
T1 construct: pBK-CMV expression construct encoding the full length human capsaicin receptor; expressed in transfected cells
Test: Calcium mobilization assay, determination of antagonist activity (Example 6)
Type: cell-based
Conditions: Table II; IC50 determined as described in Example 6
In short: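 HEK293 clonal lines stably expressing full-length human capsaicin receptor, loaded with Fluo-3 AM in KRH buffer pH 7.4, 1–2 h at 37 °C. Compounds (1–5 μM final) preincubated 0.5–6 h at room temperature, then capsaicin at its EC50 added. FLIPR/Fluoroskan calcium signal; IC50 as 50% decrease of capsaicin response.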

T1 sequence (Q8NER1 whole entry): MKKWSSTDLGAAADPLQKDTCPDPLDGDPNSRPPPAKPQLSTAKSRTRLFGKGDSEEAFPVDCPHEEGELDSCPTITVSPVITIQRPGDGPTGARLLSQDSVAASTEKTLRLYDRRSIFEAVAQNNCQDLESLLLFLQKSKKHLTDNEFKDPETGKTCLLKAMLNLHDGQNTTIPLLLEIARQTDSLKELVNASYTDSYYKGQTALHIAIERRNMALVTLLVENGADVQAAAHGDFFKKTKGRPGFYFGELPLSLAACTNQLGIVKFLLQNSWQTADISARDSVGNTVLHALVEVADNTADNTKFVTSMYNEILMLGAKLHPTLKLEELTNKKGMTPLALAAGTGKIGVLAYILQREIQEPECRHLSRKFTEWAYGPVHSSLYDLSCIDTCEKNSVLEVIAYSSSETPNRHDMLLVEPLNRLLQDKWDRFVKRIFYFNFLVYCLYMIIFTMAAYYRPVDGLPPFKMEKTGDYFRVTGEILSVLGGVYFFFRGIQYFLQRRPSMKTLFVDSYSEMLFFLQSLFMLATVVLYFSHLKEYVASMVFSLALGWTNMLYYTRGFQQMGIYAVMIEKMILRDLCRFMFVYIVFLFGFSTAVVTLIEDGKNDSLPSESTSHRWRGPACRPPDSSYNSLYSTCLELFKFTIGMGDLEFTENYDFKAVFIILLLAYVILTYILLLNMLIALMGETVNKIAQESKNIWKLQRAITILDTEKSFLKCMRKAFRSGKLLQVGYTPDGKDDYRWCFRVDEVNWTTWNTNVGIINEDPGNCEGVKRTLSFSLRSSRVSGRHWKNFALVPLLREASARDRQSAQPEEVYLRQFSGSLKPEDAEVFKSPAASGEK

SMILES | IC50
Cc1cccnc1N1CCN(c2cc(-c3cccc4ccccc34)nc(N3CCOCC3)n2)[C@H](C)C1 [Example 521, 4-[4-[(2R)-2-methyl-4-(3-methylpyridin-2-yl)piperazin-1-yl]-6-(1-naphthyl)pyrimidin-2-yl]morpholine] | ≤ 1000 nM
NC(=O)[C@@H]1CCCN1c1nc(-c2ccc(F)c(Cl)c2)cc(N2CCN(c3ncccc3C(F)(F)F)CC2)n1 [Example 567, 1-(4-(3-chloro-4-fluorophenyl)-6-{4-[3-(trifluoromethyl)pyridin-2-yl]piperazin-1-yl}pyrimidin-2-yl)-L-prolinamide] | ≤ 1000 nM
Cc1ccc(-c2cc(N3CCN(c4ncccc4C)C[C@H]3C)nc(N3CCOCC3)n2)cc1C [Example 507, 4-[4-(3,4-dimethylphenyl)-6-[(2R)-2-methyl-4-(3-methylpyridin-2-yl)piperazin-1-yl]pyrimidin-2-yl}morpholine] | ≤ 1000 nM
Cc1ccc(-c2cc(N3CCN(c4ncccc4C#N)C[C@H]3C)nc(N3CCOCC3)n2)cc1F [Example 493, 2-{(3R)-4-[6-(3-fluoro-4-methylphenyl)-2-morpholin-4-ylpyrimidin-4-yl]-3-methylpiperazin-1-yl}nicotinonitrile] | ≤ 1000 nM
C=CCN1CCN(c2nc(-c3cccc(F)c3)nc(N3CCN(c4ncccc4C(F)(F)F)CC3)n2)CC1 [Example 448, 2-(4-allylpiperazin-1-yl)-4-(3-fluorophenyl)-6-{4-[3-(trifluoromethyl)pyridin-2-yl]piperazin-1-yl}-1,3,5-triazine] | ≤ 1000 nM
CCCN1CCN(c2nc(-c3ccc(F)c(Cl)c3)cc(N3CCN(c4ncccc4C(F)(F)F)CC3)n2)CC1 [Example 547, 4-(3-chloro-4-fluorophenyl)-2-(4-propylpiperazin-1-yl)-6-{4-[3-(trifluoromethyl)pyridin-2-yl]piperazin-1-yl}pyrimidine] | ≤ 1000 nM

Same assay, conditions: Table II; IC50 determined as described in Example 6 (antagonist activity, calcium mobilization)

SMILES | IC50
Cc1ccc(-c2cc(N3CCN(c4ncccc4Cl)C[C@H]3C)nc(N3CCC[C@@H]3C)n2)cc1F [Example 994, 4-[(2R)-4-(3-chloropyridin-2-yl)-2-methylpiperazin-1-yl]-6-(3-fluoro-4-methylphenyl)-2-[(2S)-2-methylpyrrolidin-1-yl]pyrimidine] | ≤ 1000 nM
C[C@@H]1CN(c2ccccc2F)CCN1c1cc(-c2ccc(F)c(Cl)c2)nc(N2CCOCC2)n1 [Example 991, 4-{4-(3-chloro-4-fluorophenyl)-6-[(2R)-4-(2-fluorophenyl)-2-methylpiperazin-1-yl]pyrimidin-2-yl}morpholine] | ≤ 1000 nM
Cc1ccc(-c2cc(N3CCN(c4nccnc4Cl)C[C@H]3C)nc(N3CCCC3)n2)cc1F [Example 978, 4-[(2R)-4-(3-chloropyrazin-2-yl)-2-methylpiperazin-1-yl]-6-(3-fluoro-4-methylphenyl)-2-pyrrolidin-1-ylpyrimidine] | ≤ 1000 nM
Cc1ccc(-c2cc(N3CCN(c4ncccc4Cl)C[C@H]3C)nc(N3CCC[C@@H]3C)n2)cc1Cl [Example 999, 4-(3-ohloro-4-methylphenyl)-6-[(2R)-4-(3-chloropyridin-2-yl)-2-methylpiperazin-1-yl]-2-[(2S)-2-methylpyrrolidin-1-yl]pyrimidine] | ≤ 1000 nM
C[C@@H]1CN(c2nccnc2Cl)CCN1c1cc(-c2ccc(F)c(Cl)c2)nc(N2CCOC[C@@H]2C)n1 [Example 1003, (3S)-4-{4-(3-chloro-4-fluorophenyl)-6-[(2R)-4-(3-chloropyrazin-2-yl)-2-methylpiperazin-1-yl]pyrimidin-2-yl}-3-methylmorpholine] | ≤ 1000 nM
C[C@@H]1CN(c2ccccc2F)CCN1c1cc(-c2ccc(F)c(Cl)c2)nc(N2CCCC2)n1 [Example 990, 4-(3-chloro-4-fluorophenyl)-6-[(2R)-4-(2-fluorophenyl)-2-methylpiperazin-1-yl]-2-pyrrolidin-1-ylpyrimidine] | ≤ 1000 nM
C[C@H]1CN(c2ncccc2Cl)CCN1c1cc(-c2ccc(F)c(Cl)c2)nc(N2CCOC[C@@H]2C)n1 [Example 1005, (3S)-4-{4-(3-chloro-4-fluorophenyl)-6-[(2S)-4-(3-chloropyridin-2-yl)-2-methylpiperazin-1-yl]pyrimidin-2-yl}-3-methylmorpholine] | ≤ 1000 nM

Same assay, conditions: Table II; determined as described in Example 6 (antagonist activity); "*" = 1 micromolar or less

SMILES | IC50
CN(C)C1CN(c2nc(-c3ccc(F)c(Cl)c3)cc(N3CCN(c4ncccc4C(F)(F)F)CC3)n2)C1 [Example 789, 1-(4-(3-chloro-4-fluorophenyl)-6-{4-[3-(trifluoromethyl)pyridin-2-yl]piperazin-1-yl}pyrimidin-2-yl)-N,N-dimethylazetidin-3-amine] | ≤ 1000 nM
C[C@H]1CN(c2ncccc2Cl)CCN1c1cc(-c2ccc(F)c(F)c2)nc(N2CCCC2)n1 [Example 921, 4-[(2S)-4-(3-chloropyridin-2-yl)-2-methylpiperazin-1-yl]-6-(3,4-difluorophenyl)-2-pyrrolidin-1-ylpyrimidine] | ≤ 1000 nM
CCCN1CC[C@H](N(C)c2nc(-c3ccc(F)c(C)c3)cc(N3CCN(c4ncccc4C(F)(F)F)CC3)n2)C1 [Example 831, 4-(4-fluoro-3-methylphenyl)-N-methyl-N-[(3S)-1-propylpyrrolidin-3-yl]-6-{4-[3-(trifluoromethyl)pyridin-2-yl]piperazin-1-yl}pyrimidin-2-amine] | ≤ 1000 nM
FC(F)(F)c1cccnc1N1CCN(c2cc(-c3cccc(Cl)c3)nc(N3CCN4CCC[C@H]4C3)n2)CC1 [Example 892, (8aS)-2-(4-(3-chlorophenyl)-6-{4-[3-(trifluoromethyl)pyridin-2-yl]piperazin-1-yl}pyrimidin-2-yl)octahydropyrrolo[1,2-a]pyrazine] | ≤ 1000 nM
C[C@@H]1CN(c2ncccc2F)CCN1c1cc(-c2ccc(F)c(F)c2)nc(N2CCOCC2)n1 [Example 897, 4-{4-(3,4-difluorophenyl)-6-[(2R)-4-(3-fluoropyridin-2-yl)-2-methylpiperazin-1-yl]pyrimidin-2-yl}morpholine] | ≤ 1000 nM
C[C@@H]1CN(c2ccncc2Cl)CCN1c1cc(-c2ccc(F)c(F)c2)nc(N2CCCC2)n1 [Example 829, 4-[(2R)-4-(3-chloropyridin-4-yl)-2-methylpiperazin-1-yl]-6-(3,4-difluorophenyl)-2-pyrrolidin-1-ylpyrimidine] | ≤ 1000 nM
CC1CCN1c1nc(-c2ccc(F)c(Cl)c2)cc(N2CCN(c3ncccc3C(F)(F)F)C[C@H]2C)n1 (stereo partly drawn) [Example 781, 4-(3-chloro-4-fluorophenyl)-2-(2-methylazetidin-1-yl)-6-{(2R)-2-methyl-4-[3-(trifluoromethyl)pyridin-2-yl]piperazin-1-yl}pyrimidine] | ≤ 1000 nM

Same assay, conditions: determined as described in Example 6 (calcium mobilization, antagonist activity); Table II

SMILES | IC50
CC1(C)CCCN1c1nc(-c2ccc(F)c(Cl)c2)cc(N2CCN(c3ncccc3C(F)(F)F)CC2)n1 [Example 699, 4-(3-chloro-4-fluorophenyl)-2-(2,2-dimethylpyrrolidin-1-yl)-6-{4-[3-(trifluoromethyl)pyridin-2-yl]piperazin-1-yl}pyrimidine] | ≤ 1000 nM
Cc1cc(-c2cc(N3CCN(c4ncccc4C(F)(F)F)CC3)nc(N3C(C)C=CC3C)n2)ccc1F (stereo not shown) [Example 739, 2-(2,5-dimethyl-2,5-dihydro-1H-pyrrol-1-yl)-4-(4-fluoro-3-methylphenyl)-6-{4-[3-(trifluoromethyl)pyridin-2-yl]piperazin-1-yl}pyrimidine] | ≤ 1000 nM
Fc1ccc(-c2cc(N3CCN(c4ncccc4Cl)CC3)nc(N3CCCCC3)n2)cc1Cl [Example 715, 4-(3-chloro-4-fluorophenyl)-6-[4-(3-chloropyridin-2-yl)piperazin-1-yl]-2-piperidin-1-ylpyrimidine] | ≤ 1000 nM
Cc1cc(-c2cc(N3CCN(c4ncccc4C(F)(F)F)CC3)nc(NS(=O)(=O)C(C)C)n2)ccc1F [Example 690, N-(4-(4-fluoro-3-methylphenyl)-6-{4-[3-(trifluoromethyl)pyridin-2-yl]piperazin-1-yl}pyrimidin-2-yl)propane-2-sulfonamide] | ≤ 1000 nM
CCC(C)N(C)c1nc(-c2ccc(F)c(C)c2)cc(N2CCN(c3ncccc3C(F)(F)F)CC2)n1 (stereo not shown) [Example 757, N-(sec-butyl)-4-(4-fluoro-3-methylphenyl)-N-methyl-6-{4-[3-(trifluoromethyl)pyridin-2-yl]piperazin-1-yl}pyrimidin-2-amine] | ≤ 1000 nM
Cc1cc(-c2cc(N3CCN(c4ncccc4C(F)(F)F)CC3)nc(N3CCOCC3)n2)ccc1F [Example 576, 4-(4-(4-fluoro-3-methylphenyl)-6-{4-[3-(trifluoromethyl)pyridin-2-yl]piperazin-1-yl}pyrimidin-2-yl)morpholifle] | ≤ 1000 nM
[O-][n+]1ccc(-c2nc(-c3ccc(F)c(Cl)c3)cc(N3CCN(c4ncccc4C(F)(F)F)CC3)n2)cc1 [Example 670] | ≤ 1000 nM
CC1CCCCN1c1nc(-c2ccc(F)c(Cl)c2)cc(N2CCN(c3ncccc3C(F)(F)F)CC2)n1 (stereo not shown) [Example 611, 4-(3-chloro-4-fluorophenyl)-2-(2-methylpiperidin-1-yl)-6-{4-[3-(trifluoromethyl)pyridin-2-yl]piperazin-1-yl}pyrimidine] | ≤ 1000 nM
CNc1nc(-c2ccc(F)c(Cl)c2)cc(N2CCN(c3ncccc3C(F)(F)F)CC2)n1 [Example 639, 4-(3-chloro-4-fluorophenyl)-N-methyl-6-{4-[3-(trifluoromethyl)pyridin-2-yl]piperazin-1-yl}pyrimidin-2-amine] | ≤ 1000 nM
Cc1cc(-c2cc(N3CCN(c4ncccc4Cl)C[C@H]3C)nc(N3CCCCC3)n2)ccc1F [Example 720, 4-[(2R)-4-(3-chloropyridin-2-yl)-2-methylpiperazin-1-yl]-6-(4-fluoro-3-methylphenyl)-2-piperidin-1-ylpyrimidine] | ≤ 1000 nM
CC(C)c1cc(-c2cc(N3CCN(c4ncccc4C(F)(F)F)CC3)nc(N3CCOCC3)n2)ccn1 [Example 592, 4-(4-(2-isopropylpyridin-4-yl)-6-{4-[3-(trifluoromethyl)pyridin-2-yl]piperazin-1-yl}pyrimidin-2-yl)morpholine] | ≤ 1000 nM
